Measured values reported in a compilation of properties of binary mixtures (doi:10.1021/acs.jced.8b00334).

Assay: xn = mol fraction of the nth substance listed
Settings: 101.3 kPa

CCCCC[P+](CC)(CC)CC.O=S(=O)([N-]S(=O)(=O)C(F)(F)F)C(F)(F)F + CCCCC[N+](CC)(CC)CC.O=S(=O)([N-]S(=O)(=O)C(F)(F)F)C(F)(F)F
x2 = 0
Settings | viscosity [mPa·s]
288.15 K | 150
293.15 K | 113
298.15 K | 87
303.15 K | 69
308.15 K | 55
313.15 K | 44.5
318.15 K | 36.6
328.15 K | 25.6
333.15 K | 21.8
338.15 K | 18.7
343.15 K | 16.2
348.15 K | 14.2
353.15 K | 12.5

CCCCC[N+](CC)(CC)CC.O=S(=O)([N-]S(=O)(=O)C(F)(F)F)C(F)(F)F + CCCCC[P+](CC)(CC)CC.O=S(=O)([N-]S(=O)(=O)C(F)(F)F)C(F)(F)F
viscosity [mPa·s]
Settings | x1 = 0.2 | x1 = 0.4 | x1 = 0.6 | x1 = 0.8 | x1 = 1
283.15 K | 229 | 266 | 316 | 386 | 479
288.15 K | 168 | 192 | 225 | 270 | 329
293.15 K | 126 | 143 | 165 | 194 | 233
298.15 K | 97 | 108 | – | 144 | 169
303.15 K | 75 | 84 | 94 | 109 | –
308.15 K | 60 | 66 | 74 | 84 | 96
313.15 K | 48.3 | 53 | 58 | 66 | 75
318.15 K | – | 42.9 | 47.2 | 53 | 60
323.15 K | 32.7 | 35.4 | 38.6 | 42.9 | 48
328.15 K | 27.4 | 29.5 | 32.1 | 35.4 | 39.3
333.15 K | 23.2 | 24.9 | 26.9 | 29.5 | 32.6
338.15 K | 19.9 | 21.2 | – | 24.9 | 27.4
343.15 K | 17.2 | 18.3 | 19.6 | 21.3 | –
348.15 K | 15 | 15.9 | 16.9 | – | 19.9
353.15 K | – | 13.9 | 14.8 | 15.9 | –

CCC[N+](C)(C)C.O=S(=O)([N-]S(=O)(=O)C(F)(F)F)C(F)(F)F + CCC[N+]1(C)CCCC1.O=S(=O)([N-]S(=O)(=O)C(F)(F)F)C(F)(F)F
viscosity [mPa·s]
Settings | x1 = 0.2 | x1 = 0.4 | x1 = 0.6 | x1 = 0.8 | x1 = 1
283.15 K | 129 | – | – | 160 | –
288.15 K | 101 | 104 | – | 121 | –
293.15 K | 78 | – | 88 | 94 | 102
298.15 K | 63 | 65 | 70 | 74 | 79
303.15 K | 51 | 52 | 56 | – | 63
308.15 K | – | 43.1 | – | 48.3 | 51
313.15 K | 35.2 | 35.9 | – | 39.9 | 42
318.15 K | 29.8 | 30.3 | 32.1 | – | 35
323.15 K | 25.5 | 25.8 | 27.3 | – | –
328.15 K | – | – | 23.4 | – | 25.2
333.15 K | – | – | – | 20.9 | –
338.15 K | 16.8 | 16.9 | 17.7 | 18.2 | 18.8
343.15 K | 14.8 | – | 15.6 | 16 | 16.5
348.15 K | 13.2 | – | 13.8 | 14.2 | 14.6
353.15 K | – | 11.9 | – | 12.6 | 12.9

CCC[N+](C)(C)C.O=S(=O)([N-]S(=O)(=O)C(F)(F)F)C(F)(F)F + CCC[N+]1(C)CCCCC1.O=S(=O)([N-]S(=O)(=O)C(F)(F)F)C(F)(F)F
viscosity [mPa·s]
Settings | x1 = 0.2 | x1 = 0.4 | x1 = 0.6 | x1 = 0.8 | x1 = 1
283.15 K | 340 | 292 | – | – | 179
288.15 K | 240 | 209 | 180 | 149 | 133
293.15 K | 175 | 154 | – | – | 102
298.15 K | 131 | 117 | 103 | 88 | 79
303.15 K | 101 | 90 | 80 | 70 | 63
308.15 K | 78 | – | – | 56 | 51
313.15 K | 62 | 57 | 51 | – | 42
318.15 K | 51 | – | – | 38 | 35
323.15 K | 41.5 | 38.4 | 35.2 | 31.8 | 29.5
328.15 K | 34.6 | 32.1 | 29.6 | 27 | 25.2
333.15 K | 29.1 | 27.2 | 25.3 | 23.2 | 21.7
338.15 K | 24.8 | 23.3 | 21.7 | 20 | 18.8
343.15 K | 21.4 | – | 18.9 | – | 16.5
348.15 K | 18.6 | 17.6 | 16.5 | – | –
353.15 K | 16.3 | 15.4 | 14.6 | 13.6 | 12.9

CCC[N+]1(C)CCCC1.O=S(=O)([N-]S(=O)(=O)C(F)(F)F)C(F)(F)F + CCC[N+](C)(C)C.O=S(=O)([N-]S(=O)(=O)C(F)(F)F)C(F)(F)F
x2 = 0
Settings | viscosity [mPa·s]
283.15 K | 126
288.15 K | 97
293.15 K | 76
303.15 K | 50
308.15 K | 41.1
313.15 K | 34.4
318.15 K | 29.2
323.15 K | 25
328.15 K | 21.6
333.15 K | 18.8
338.15 K | 16.6
343.15 K | 14.7
348.15 K | 13.1
353.15 K | 11.7

CCC[N+]1(C)CCCCC1.O=S(=O)([N-]S(=O)(=O)C(F)(F)F)C(F)(F)F + CCC[N+](C)(C)C.O=S(=O)([N-]S(=O)(=O)C(F)(F)F)C(F)(F)F
x2 = 0
Settings | viscosity [mPa·s]
283.15 K | 397
288.15 K | 277
308.15 K | 87
318.15 K | 55
323.15 K | 45.1
328.15 K | 37.3
333.15 K | 31.4
348.15 K | 19.8
353.15 K | 17.3
